How the values were obtained:
[1] = Binding affinity to [125I] radiolabelled Angiotensin-2 receptor in bovine adrenal cortex membrane; type: cell membranes, Bos taurus
[2] = In vivo inhibition of Angiotensin II-induced pressor response in Wistar rat model at 0.3 mg/kg, po and measured for 6 hrs; type: functional
[3] = AUC in mouse at 50 mg/kg, po measured for 40 mins by LC-MS/MS analysis; type: ADME, organism-based; settings: in vivo
Mus musculus [4] = test: Dose normalized in AUC mouse at 50 mg/kg by LC-MS/MS analysis; type: ADME, organism-based; settings: in vivo
[5] = biological target: Dual specificity mitogen-activated protein kinase kinase 1 (Homo sapiens, UniProt Q02750); test: Inhibition of MEK1 (unknown origin) phosphorylation
Mus musculus [6] = test: Dose normalized in AUC mouse at 25 mg/kg by LC-MS/MS analysis; type: ADME, organism-based; settings: in vivo
[7] = AUC in po dosed mouse at 25 mg/kg by LC-MS/MS analysis; type: ADME, organism-based; settings: in vivo

Chain of Dual specificity mitogen-activated protein kinase kinase 1 (Q02750 whole entry): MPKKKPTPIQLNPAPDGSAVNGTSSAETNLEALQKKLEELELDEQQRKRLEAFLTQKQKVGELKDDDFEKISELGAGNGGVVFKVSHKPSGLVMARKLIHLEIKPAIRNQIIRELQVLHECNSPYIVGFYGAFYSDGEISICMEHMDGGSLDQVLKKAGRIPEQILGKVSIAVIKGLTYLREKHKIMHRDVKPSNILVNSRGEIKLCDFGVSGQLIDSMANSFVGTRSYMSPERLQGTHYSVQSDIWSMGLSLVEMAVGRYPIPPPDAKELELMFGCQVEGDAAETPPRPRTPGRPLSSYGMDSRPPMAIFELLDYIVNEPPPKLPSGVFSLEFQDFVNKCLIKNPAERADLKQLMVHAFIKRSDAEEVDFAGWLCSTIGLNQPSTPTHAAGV

Row | Structure (SMILES) | IC50 [1] | inhibition in vivo at 0.3 mg/kg [2] | further results
1 | CCCc1nc(CC)c(C(=O)O)n1Cc1ccc(-c2ccccc2-c2nn[nH]n2)cc1 | 12 nM |  | 
2 | CCCc1nc(C(C)C)c(C(=O)O)n1Cc1ccc(-c2ccccc2-c2nn[nH]n2)cc1 | 46 nM |  | 
3 | CCCc1nc(CO)c(C(=O)O)n1Cc1ccc(-c2ccccc2-c2nn[nH]n2)cc1 | 6.9 nM | 65% | 
4 | Nc1nccn2c(C3CCC3)nc(-c3ccc4ccc(-c5ccccc5)nc4c3)c12 |  |  | AUC [3]: 5170 ng·h/mL; AUC/dose (Mus musculus [4]): 103.4 ng·h/mL/mg/kg
5 | CCCc1nc(C)c(C(=O)O)n1Cc1ccc(-c2ccccc2-c2nn[nH]n2)cc1 | 11 nM |  | 
6 | CCCc1nc(C(C)O)c(C(=O)O)n1Cc1ccc(-c2ccccc2-c2nn[nH]n2)cc1 (centres undefined) | 4.9 nM | 69% | 
7 | O=C(c1ccc(F)c(F)c1Nc1ccc(I)cc1F)N1CC(O)([C@@H]2CCCCN2)C1 [COBIMETINIB] |  |  | IC50 [5]: 0.2 nM
8 | C[C@]1(O)C[C@@H](c2nc(-c3ccc4ccc(-c5ccccc5)nc4c3)c3c(N)nccn32)C1 [LINSITINIB] |  |  | AUC/dose (Mus musculus [6]): 1069.6 ng·h/mL/mg/kg; AUC [7]: 26700 ng·h/mL
9 | CCCc1nc(C(C)(C)O)c(C(=O)O)n1Cc1ccc(-c2ccccc2-c2nnn[nH]2)cc1 [OLMESARTAN] | 8.1 nM | 78% | 

— ChEMBL document CHEMBL6109157, “Tertiary Alcohol: Reaping the Benefits but Minimizing the Drawbacks of Hydroxy Groups in Drug Discovery” (J Med Chem, 2025)
